Measurements: patent US20230109134A1, “PYRIDAZINONE OR PYRIDAZINE COMPOUND AND DERIVATIVE AND PHARMACEUTICAL COMPOSITION THEREOF” (Suzhou Zelgen Biopharmaceuticals Co., Ltd., priority 2019, published 2023)

What was measured:
[1] = Pharmacokinetic testing evaluation, Test Example 4 (rat plasma); type: in vivo, SD rats; conditions: for plasma exposure AUC relative to compound MGL-3196: rats, 10 mg/kg intragastric, Table 5
Method: (§1) Male SD rats, weighing about 220 g, were divided into 3 groups after fasting overnight, with 4 rats in each group. The first group was intragastrically administered 10 mg/kg solution of compound MGL-3196 prepared in Example 1, the second group was intragastrically administered 10 mg/kg solution of compound 2A prepared in Example 2 (The dosage is calculated by the relative content of compound MGL-3196 prepared in Example 1), and the third group was intragastrically administered 10 mg/kg solution of compound 2B prepared in Example 2 (The dosage is calculated by the relative content of compound MGL-3196 prepared in Example 1), wherein the vehicle of the solution of compound MGL-3196, compound 2A, and compound 2B is DMSO/PEG400. Blood was collected from each group at 0.5, 1.0, 2.0, 4.0, 6.0, 8.0, 12 and 24 hours after administration, and the concentration of active ingredient MGL-3196 in plasma was determined by LC/MS/MS.

[2] = Drug concentrations in liver tissue, Test Example 5; type: in vivo, ICR mice; conditions: mouse liver at 1 hr and 6 hr, 10 mg/kg intragastric
Method: ICR mice, weighing 20-30 g, were divided into 4 groups after fasting overnight, with 8 mice in each group. The first group was intragastrically administered 10 mg/kg solution of compound MGL-3196 prepared in Example 1, the second group was intragastrically administered 10 mg/kg solution of compound 2A prepared in Example 2 (The dosage is calculated by the relative content of compound MGL-3196 prepared in Example 1), the third group was intragastrically administered 10 mg/kg solution of compound 2B prepared in Example 2 (The dosage is calculated by the relative content of compound MGL-3196 prepared in Example 1) and the fourth group was intragastrically administered 10 mg/kg solution of compound 6B prepared in Example 6 (The dosage is calculated by the relative content of compound MGL-3196 prepared in Example 1), wherein the vehicle of the solution of compound MGL-3196, compound 2A, compound 2B and compound 6B is DMSO/PEG400. The livers of mice in each group were collected at 1 hr and 6 hr after administration, respectively, and the concentration of the active ingredient MGL-3196 in the liver was determined by LC/MS/MS.

[3] = tested on: Diet-Induced Obesity (DIO) C57Bl/6J mouse; experiment: Diet-induced obesity (DIO) C57Bl/6J mouse model; type: in vivo; conditions: DIO C57Bl/6J mice, 1, 3 or 10 mg/kg intragastric, 23 consecutive days
Method: 6-week-old C57Bl/6J mice were given a high-fat diet for 34 weeks. Mice were intragastrically administered vehicle (2% Klucel LF, 0.1% Tween 80 in water); 1, 3 or 10 mg/kg of compound 2A, compound 2B prepared in Example 2 or compound MGL-3196 prepared in Example 1 starting from day 0 (1st day of 35 weeks) respectively, 9 mice in each group, for 23 consecutive days. In a parallel study, mice were intragastrically administered vehicle (Dulbecco's phosphate buffered saline, pH adjusted to 9.0 with 1N NaOH) or 10, 30 or 100 μg/kg triiodothyronine (T3) starting from day 0 (day 1 of week 35) respectively, 9 mice in each group, for 23 consecutive days. Body weight and food intake were monitored during the study. BMD and body composition analyses were performed on day 22. At necropsy on day 23, organ weighing was performed and cholesterol and other blood biochemical parameters of blood samples were evaluated.

[4] = Pharmacokinetic testing evaluation, Test Example 3 (rat plasma); type: in vivo, SD rats
Method: as §1, with “1, and” for “1,”, “6B” for “2A”, “6” for “2 (The dosage is calculated by the relative content of compound MGL-3196 prepared in Example 1), and the third group was intragastrically administered 10 mg/kg solution of compound 2B prepared in Example 2”, “MGL-3196” for “MGL-3196, compound 2A,”, “6B prepared in Example 6” for “2B”

[5] = Pharmacokinetic testing evaluation, Test Example 2 (rat plasma); type: in vivo; conditions: male SD rats, intragastric 10 mg/kg (calculated based on MGL-3196), DMSO/PEG400; MGL-3196 measured in plasma; n = 4, mean
Method: Male SD rats, weighing about 220 g, were divided into 2 groups after fasting overnight, with 4 rats in each group. The first group was intragastrically administered 10 mg/kg solution of compound MGL-3196 prepared in Example 1, and the second group was intragastrically administered 10 mg/kg solution of compound 6A prepared in Example 6 (The dosage is calculated by the relative content of compound MGL-3196 prepared in Example 1), wherein the vehicle of the solution of MGL-3196 compound and compound 6A prepared in Example 6 is DMSO/PEG400. Blood was collected from each group at 0.5, 1.0, 2.0, 4.0, 6.0, 8.0, 12 and 24 hours after administration, and the concentration of active ingredient MGL-3196 in plasma was determined by LC/MS/MS.

[6] = Pharmacokinetic testing evaluation, Test Example 1 (rat plasma); type: in vivo; conditions: male SD rats, intragastric 10 mg/kg (calculated based on MGL-3196), DMSO/PEG400; plasma concentration of MGL-3196; n = 4, mean
Method: Male SD rats, weighing about 220 g, were divided into 2 groups after fasting overnight, with 4 rats in each group. The first group was intragastrically administered 10 mg/kg solution of compound MGL-3196 prepared in Example 1, and the second group was intragastrically administered 10 mg/kg solution of compound of Example 5 of WO2009037172A1 (The dosage is calculated by the relative content of compound MGL-3196 prepared in Example 1), wherein the vehicle of the solution of compound MGL-3196 and compound of Example 5 of WO2009037172A1 is DMSO/PEG400. Blood was collected from each group at 0.5, 1.0, 2.0, 4.0, 6.0, 8.0, 12 and 24 hours after administration, and the concentration of active ingredient MGL-3196 in plasma was determined by LC/MS/MS.

[7] = male SD rats, intragastric 10 mg/kg (calculated based on MGL-3196), DMSO/PEG400, MGL-3196 measured in plasma, n = 4, mean

SMILES	plasma exposure AUC relative to compound MGL-3196 [1] [times]	drug concentration in mouse liver compared to MGL-3196 [2]	efficacy in lowering cholesterol and liver fat [3]	plasma exposure AUC relative to compound MGL-3196 ([4]; rats, 10 mg/kg intragastric, Table 4) [times]	T1/2 [1, 7] [h]	Tmax [1, 7] [h]	T1/2 [4, 7] [h]	Tmax [4, 7] [h]	T1/2 [5] [h]	Tmax [5] [h]	T1/2 [6] [h]	Tmax [6] [h]
CC(C)OC(=O)OC(C)n1nc(Oc2c(Cl)cc(-n3nc(C#N)c(=O)[nH]c3=O)cc2Cl)cc(C(C)C)c1=O (centres unmarked) [Compound 2A, 1-(3-(2,6-dichloro-4-(6-cyano-3,5-dioxo-4,5-dihydro-1,2,4-triazin-2(3H)-yl)phenoxy)-5-isopropyl-6-oxopyridazin-1(6H)-yl)ethyl Isopropyl Carbonate]	2.4	higher drug concentrations	excellent efficacy in lowering cholesterol and liver fat	–	–	–	–	–	–	–	–	–
CC(C)OC(=O)OCOc1nnc(Oc2c(Cl)cc(-n3nc(C#N)c(=O)[nH]c3=O)cc2Cl)cc1C(C)C [Compound 6B, ((6-(2,6-dichloro-4-(6-cyano-3,5-dioxo-4,5-dihydro-1,2,4-triazin-2(3H)-yl)phenoxy)-4-isopropylpyridazin-3-yl)oxy)methyl Isopropyl Carbonate]	–	higher drug concentrations	excellent efficacy in lowering cholesterol and liver fat	2.0	–	–	–	–	–	–	–	–
CC(C)c1cc(Oc2c(Cl)cc(-n3nc(C#N)c(=O)[nH]c3=O)cc2Cl)n[nH]c1=O [MGL-3196, 2-(3,5-dichloro-4-((5-isopropyl-6-oxo-1,6-dihydropyridazin-3-yl)oxy)phenyl)-3,5-dioxo-2,3,4,5-tetrahydro-1,2,4-triazin-6-carbonitrile]	–	–	–	–	3.73	4.5	3.55	6.0	3.54	5.00	3.35	2.75
CC(C)OC(=O)OC(C)Oc1nnc(Oc2c(Cl)cc(-n3nc(C#N)c(=O)[nH]c3=O)cc2Cl)cc1C(C)C (centres unmarked) [Compound 2B, 1-((6-(2,6-dichloro-4-(6-cyano-3,5-dioxo-4,5-dihydro-1,2,4-triazin-2(3H)-yl)phenoxy)-4-isopropylpyridazin-3-yl)oxy)ethyl Isopropyl Carbonate]	1.87	higher drug concentrations	excellent efficacy in lowering cholesterol and liver fat	–	–	–	–	–	–	–	–	–
